Experiment [1] addresses T1, baculovirus-expressed ALK (Homo sapiens, UniProt Q9UM73).
T1 construct: host or cells: baculovirus expression system
The experiment can be described thus: ALK Kinase Assay (ELISA-type, time-resolved fluorescence). Type of experiment: biochemical. The procedure, abridged: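 Wells were coated with phospholipase C-γ at 10 μg/mL in Tris-buffered saline. Adding 30 ng/ml enzyme started the reaction, which ran at 37° C for 15 minutes before Eu-N1 PT66 antibody detection. Percent inhibition versus log10 concentration gave IC50 by variable-slope fit.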

Experiment [2] concerns the target T2, c-Met (cytoplasmic domain) (Homo sapiens, UniProt P08581).
T2 construct: 10 ng/mL c-Met (cytoplasmic domain, Invitrogen Corporation #PV3143); purchased Invitrogen Corporation PV3143
Nature of the experiment: c-Met Kinase Assay (same methods as for ALK, with modifications). Type of experiment: biochemical. The procedure, abridged:
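Steps: coat wells with PLC-γ (10 μg/mL, Tris-buffered saline); add 10 ng/mL c-Met cytoplasmic domain to initiate; incubate 15 min, 37° C; detect phosphoproduct via Eu-N1 PT66 antibody.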

Setting [3] is: 1 μM ATP (Km level), 30 ng/ml ALK, 37° C., 15 minutes, read-out: ALK Activity (ALK kinase inhibition, IC50 class).
The mark [4] stands for this setting: 1 μM ATP (Km level), 10 ng/mL c-Met, read-out: cMet Activity (c-Met kinase inhibition, IC50 class).
The mark [5] stands for this setting: ALK kinase inhibition, 1 μM ATP (Km level), read-out: ALK Activity.
Where [6] appears, read: c-Met kinase inhibition, 1 μM ATP (Km level), read-out: cMet Activity.
The mark [7] stands for this setting: 1 μM ATP (Km level), read-out: ALK Activity (ALK Kinase Inhibition, IC50).
[8] abbreviates: 1 μM ATP (Km level), read-out: cMet Activity (c-Met Kinase Inhibition, IC50).
[9] abbreviates: ALK kinase inhibition, 1 μM ATP, read-out: ALK Activity.
The mark [10] stands for this setting: c-Met kinase inhibition, 1 μM ATP, read-out: cMet Activity.

For 23 compounds, IC50 results are on record in patent publication US8148391B2 (Cephalon, Inc., priority 2006, dated 2012).

Where two headings read alike, the source gives them in different places.

T1 sequence (Q9UM73 19-1620): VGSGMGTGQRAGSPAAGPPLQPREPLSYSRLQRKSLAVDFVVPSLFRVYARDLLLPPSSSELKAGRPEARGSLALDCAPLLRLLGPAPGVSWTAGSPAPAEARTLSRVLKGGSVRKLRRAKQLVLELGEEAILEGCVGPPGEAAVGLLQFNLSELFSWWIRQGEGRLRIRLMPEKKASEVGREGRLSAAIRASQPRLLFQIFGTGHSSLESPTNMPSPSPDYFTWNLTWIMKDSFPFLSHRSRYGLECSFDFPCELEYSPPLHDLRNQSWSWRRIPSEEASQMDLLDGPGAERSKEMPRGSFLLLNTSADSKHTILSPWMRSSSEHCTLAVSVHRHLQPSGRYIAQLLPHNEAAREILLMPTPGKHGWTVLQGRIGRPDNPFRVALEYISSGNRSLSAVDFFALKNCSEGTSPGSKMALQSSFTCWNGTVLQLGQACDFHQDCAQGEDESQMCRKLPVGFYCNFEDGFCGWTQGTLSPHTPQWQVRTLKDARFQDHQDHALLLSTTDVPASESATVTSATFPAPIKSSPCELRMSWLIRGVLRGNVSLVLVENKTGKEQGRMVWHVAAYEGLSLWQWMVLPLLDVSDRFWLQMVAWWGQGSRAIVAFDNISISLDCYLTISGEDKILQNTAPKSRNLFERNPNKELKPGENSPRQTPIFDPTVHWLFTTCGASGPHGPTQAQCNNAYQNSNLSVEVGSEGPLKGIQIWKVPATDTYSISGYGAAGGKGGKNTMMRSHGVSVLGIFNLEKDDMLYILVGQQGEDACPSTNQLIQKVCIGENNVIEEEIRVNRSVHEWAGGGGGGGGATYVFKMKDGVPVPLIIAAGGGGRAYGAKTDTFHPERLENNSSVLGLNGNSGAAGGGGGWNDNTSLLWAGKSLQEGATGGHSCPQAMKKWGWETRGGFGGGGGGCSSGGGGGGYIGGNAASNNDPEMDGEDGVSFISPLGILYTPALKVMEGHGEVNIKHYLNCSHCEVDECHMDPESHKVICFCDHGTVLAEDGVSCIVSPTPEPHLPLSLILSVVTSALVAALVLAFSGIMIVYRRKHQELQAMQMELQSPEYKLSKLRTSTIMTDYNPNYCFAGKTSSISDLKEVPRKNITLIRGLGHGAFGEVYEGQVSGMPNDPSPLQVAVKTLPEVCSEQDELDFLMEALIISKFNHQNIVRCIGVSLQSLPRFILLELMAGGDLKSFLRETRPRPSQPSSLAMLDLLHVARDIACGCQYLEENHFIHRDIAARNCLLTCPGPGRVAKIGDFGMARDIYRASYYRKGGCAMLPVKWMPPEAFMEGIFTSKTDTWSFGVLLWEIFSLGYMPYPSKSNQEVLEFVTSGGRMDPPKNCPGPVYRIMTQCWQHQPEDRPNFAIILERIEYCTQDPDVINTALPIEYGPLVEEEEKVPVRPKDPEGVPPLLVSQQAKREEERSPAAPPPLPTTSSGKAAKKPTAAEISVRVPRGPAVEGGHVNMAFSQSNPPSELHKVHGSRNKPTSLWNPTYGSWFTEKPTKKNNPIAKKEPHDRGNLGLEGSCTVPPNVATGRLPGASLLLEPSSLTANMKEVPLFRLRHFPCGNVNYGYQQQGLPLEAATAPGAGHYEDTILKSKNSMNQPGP
T2 sequence (P08581 956-1390 limits assumed): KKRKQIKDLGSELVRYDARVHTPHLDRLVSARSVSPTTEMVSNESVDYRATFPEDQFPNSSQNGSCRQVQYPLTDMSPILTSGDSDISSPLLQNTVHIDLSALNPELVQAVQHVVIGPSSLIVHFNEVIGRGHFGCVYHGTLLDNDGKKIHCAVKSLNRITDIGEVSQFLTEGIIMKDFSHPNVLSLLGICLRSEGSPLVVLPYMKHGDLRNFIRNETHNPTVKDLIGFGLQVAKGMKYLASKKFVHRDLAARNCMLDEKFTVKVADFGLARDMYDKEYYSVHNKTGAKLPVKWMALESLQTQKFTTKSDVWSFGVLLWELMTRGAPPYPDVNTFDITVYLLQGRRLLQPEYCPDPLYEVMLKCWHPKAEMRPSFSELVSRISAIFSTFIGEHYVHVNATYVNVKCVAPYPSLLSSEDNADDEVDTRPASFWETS

In the case of `COCC(COC)N1CCc2cc(Nc3ncc(Cl)c(Nc4ccc(C(N)=O)cc4OC)n3)c(OC)cc2CC1` [Example 1153, 4-{5-Chloro-2-[8-methoxy-3-(2-methoxy-1-methoxymethyl-ethyl)-2,3,4,5-tetrahydro-1H-benzo[d]azepin-7-ylamino]-pyrimidin-4-ylamino}-3-methoxy-benzamide], the IC50 in experiment [1] (setting [3]) is under 100 nM; in experiment [2] (setting [4]), over 10000 nM.

Take `COC(=O)CN1CCN(C)c2cc(Nc3ncc(Cl)c(Nc4ccccc4NS(C)(=O)=O)n3)ccc2C1` [Example 472, {8-[5-Chloro-4-(2-methanesulfonylamino-phenylamino)-pyrimidin-2-ylamino]-1-methyl-1,2,3,5-tetrahydro-benzo[e][1,4]diazepin-4-yl}-acetic acid methyl ester]: the results for the IC50 in experiment [1] (setting [5]) and in experiment [2] (setting [6]) were under 100 nM and 100 to 1000 nM, respectively.

For the compound `CCN1CCN(CC)c2cc(Nc3ncc(Cl)c(Nc4ccccc4S(=O)(=O)C(C)C)n3)ccc2C1` [Example 728, 5-Chloro-N(2)-(1,4-diethyl-2,3,4,5-tetrahydro-1H-benzo[e][1,4]diazepin-8-yl)-N(4)-[2-(propane-2-sulfonyl)-phenyl]-pyrimidine-2,4-diamine], the IC50 in experiment [1] (setting [7]) was under 100 nM; in experiment [2] (setting [8]) it was 100 to 1000 nM.

With `CNC(=O)c1ccccc1Nc1nc(Nc2cc3c(cc2OC)CCN(CC(=O)N(C)C)CC3)ncc1Cl` [Example 259, 2-[5-Chloro-2-(3-dimethylcarbamoylmethyl-8-methoxy-2,3,4,5-tetrahydro-1H-benzo[d]azepin-7-ylamino)-pyrimidin-4-ylamino]-N-methyl-benzamide], the IC50 in experiment [1] (setting [5]) was under 100 nM; in experiment [2] (setting [6]), 100 to 1000 nM.

Regarding `COc1cc2c(cc1Nc1ncc(Cl)c(Nc3ccccc3S(C)(=O)=O)n1)CCN(CC(=O)N(C)C)CC2` [Example 1142, 2-{7-[5-Chloro-4-(2-methanesulfonyl-phenylamino)-pyrimidin-2-ylamino]-8-methoxy-1,2,4,5-tetrahydro-benzo[d]azepin-3-yl}-N,N-dimethyl-acetamide], the IC50 is under 100 nM in experiment [1] (setting [3]) and 1000 to 10000 nM in experiment [2] (setting [4]).

On to `CNC(=O)c1cccc(F)c1Nc1nc(Nc2ccc3c(c2)NCCCC3(C)C)ncc1Cl` [Example 1611, 2-[5-Chloro-2-(5,5-dimethyl-2,3,4,5-tetrahydro-1H-benzo[b]azepin-8-ylamino)-pyrimidin-4-ylamino]-3-fluoro-N-methyl-benzamide], for which the IC50 in experiment [1] (setting [9]) was 100 to 1000 nM; in experiment [2] (setting [10]), under 100 nM.

Regarding “N-((1R,2R)-2-{5-Chloro-2-[7-(2,2-difluoro-ethylamino)-6,7,8,9-tetrahydro-5H-benzocyclohepten-2-ylamino]-pyrimidin-4-ylamino}-cyclohexyl)-methanesulfonamide [Example 675]”, the IC50 in experiment [1] (setting [7]) is under 100 nM; in experiment [2] (setting [8]), over 10000 nM.

In the case of `C#CCN1CCc2ccc(Nc3ncc(Cl)c(Nc4ccccc4NS(C)(=O)=O)n3)cc2CC1` [Example 326, N-{2-[5-Chloro-2-(3-prop-2-ynyl-2,3,4,5-tetrahydro-1H-benzo[d]azepin-7-ylamino)-pyrimidin-4-ylamino]-phenyl}-methanesulfonamide], the IC50 was under 100 nM in experiment [1] (setting [5]) and 100 to 1000 nM in experiment [2] (setting [6]).

For `CNS(=O)(=O)c1ccccc1Nc1nc(Nc2ccc3c(c2)C2CCC3CN(C(=O)C(F)(F)F)C2)ncc1Cl` (stereo not shown) [Example 284, 2-{5-Chloro-2-[10-(2,2,2-trifluoro-acetyl)-10-aza-tricyclo[6.3.2.0*2,7*]trideca-2,4,6-trien-4-ylamino]-pyrimidin-4-ylamino}-N-methyl-benzenesulfonamide], the IC50 in experiment [1] (setting [5]) was under 100 nM; in experiment [2] (setting [6]), 100 to 1000 nM.

Turning to `CCN1CCN(CC)c2cc(Nc3ncc(Cl)c(N[C@@H]4CCCC[C@H]4NS(C)(=O)=O)n3)ccc2C1=O` [Example 424, N-{(1R,2R)-2-[5-Chloro-2-(1,4-diethyl-5-oxo-2,3,4,5-tetrahydro-1H-benzo[e][1,4]diazepin-8-ylamino)-pyrimidin-4-ylamino]-cyclohexyl}-methanesulfonamide], the values for the IC50 in experiment [1] (setting [5]) and in experiment [2] (setting [6]) were under 100 nM and 1000 to 10000 nM, respectively.

Regarding `COc1cc2c(cc1Nc1ncc(Cl)c(N[C@@H]3CCCC[C@H]3NS(C)(=O)=O)n1)CCC(N1CCN(C)CC1)CC2` (single isomer, unassigned) [Example 1101], the values for the IC50 in experiment [1] (setting [3]) and in experiment [2] (setting [4]) were under 100 nM and over 10000 nM, respectively.

Take `CCN1CCN(CC(=O)OCCOC)C(=O)c2ccc(Nc3ncc(Cl)c(N[C@H]4[C@@H]5CC[C@@H](C5)[C@H]4C(N)=O)n3)cc21` [Example 1457, {8-[4-((1R,2S,3R,4S)-3-Carbamoyl-bicyclo[2.2.1]hept-2-ylamino)-5-chloro-pyrimidin-2-ylamino]-1-ethyl-5-oxo-1,2,3,5-tetrahydro-benzo[e][1,4]diazepin-4-yl}-acetic acid 2-methoxy-ethyl ester]: the IC50 in experiment [1] (setting [9]) is under 100 nM; in experiment [2] (setting [10]), 1000 to 10000 nM.

As for `COc1cccnc1-c1ccccc1Nc1nc(Nc2ccc3c(c2)CCC(N2CCOCC2)CC3)ncc1Cl` (stereo not shown) [Example 1018, 5-Chloro-N*4*-[2-(3-methoxy-pyridin-2-yl)-phenyl]-N*2*-(7-morpholin-4-yl-6,7,8,9-tetrahydro-5H-benzocyclohepten-2-yl)-pyrimidine-2,4-diamine], the IC50 was under 100 nM in experiment [1] (setting [3]) and 1000 to 10000 nM in experiment [2] (setting [4]).

With `CCN1CCCOc2cc(Nc3ncc(Cl)c(N[C@@H]4CCCC[C@H]4NS(C)(=O)=O)n3)ccc21` [Example 1693, N-{(1R,2R)-2-[5-Chloro-2-(9-ethyl-6,7,8,9-tetrahydro-5-oxa-9-aza-benzocyclohepten-3-ylamino)-pyrimidin-4-ylamino]-cyclohexyl}-methanesulfonamide], the IC50 in experiment [1] (setting [9]) was under 100 nM; in experiment [2] (setting [10]), 100 to 1000 nM.

As for `CNC(=O)c1sccc1Nc1nc(Nc2ccc3c(c2)-n2ccnc2CCC3)ncc1Cl` [Example 1840, 3-[5-Chloro-2-(5,6-dihydro-4H-3,10b-diaza-benzo[e]azulen-9-ylamino)-pyrimidin-4-ylamino]-thiophene-2-carboxylic acid methylamide], the IC50 in experiment [1] (setting [9]) and in experiment [2] (setting [10]) was 100 to 1000 nM each time.

For the compound `CNC(=O)c1cc(F)ccc1Nc1nc(Nc2ccc3c(c2)-c2nccn2CCC3)ncc1Cl` [Example 1847, 2-[5-Chloro-2-(5,6-dihydro-4H-1,3a-diaza-benzo[e]azulen-9-ylamino)-pyrimidin-4-ylamino]-5-fluoro-N-methyl-benzamide], the values for the IC50 in experiment [1] (setting [9]) and in experiment [2] (setting [10]) were 1000 to 10000 nM and 100 to 1000 nM, respectively.

Turning to `CNC(=O)c1ccccc1N(C)c1nc(Nc2ccc3c(c2)CCOC(=O)N3C)ncc1F` [Example 1765, 2-{[5-Fluoro-2-(5-methyl-6-oxo-5,6,8,9-tetrahydro-7-oxa-5-aza-benzocyclohepten-2-ylamino)-pyrimidin-4-yl]-methyl-amino}-N-methyl-benzamide], the IC50 is over 10000 nM in experiment [1] (setting [9]) and 1000 to 10000 nM in experiment [2] (setting [10]).

For `CCNC(=O)c1ccccc1Nc1nc(Nc2cc3c(cc2OC)CCN(CC(=O)NC)CC3)ncc1Cl` [Example 1115, 2-[5-Chloro-2-(8-methoxy-3-methylcarbamoylmethyl-2,3,4,5-tetrahydro-1H-benzo[d]azepin-7-ylamino)-pyrimidin-4-ylamino]-N-ethyl-benzamide], the IC50 in experiment [1] (setting [3]) was under 100 nM; in experiment [2] (setting [4]), 1000 to 10000 nM.

Take `CNC(=O)c1cccc(F)c1Nc1nc(Nc2ccc3c(c2)CCC(NCC(F)F)CC3)ncc1Cl` (stereo not shown) [Example 664, 2-{5-Chloro-2-[7-(2,2-difluoro-ethylamino)-6,7,8,9-tetrahydro-5H-benzocyclohepten-2-ylamino]-pyrimidin-4-ylamino}-3-fluoro-N-methyl-benzamide]: the IC50 in experiment [1] (setting [7]) and in experiment [2] (setting [8]) was under 100 nM throughout.

As for `CNC(=O)c1c(C)cccc1Nc1nc(Nc2ccc3c(c2)CCOC(=O)N3C)ncc1Cl` [Example 1755, 2-[5-Chloro-2-(5-methyl-6-oxo-5,6,8,9-tetrahydro-7-oxa-5-aza-benzocyclohepten-2-ylamino)-pyrimidin-4-ylamino]-6,N-dimethyl-benzamide], the IC50 in experiment [1] (setting [9]) and in experiment [2] (setting [10]) was 100 to 1000 nM in each case.

As to `C#CCNC(=O)c1cccc(F)c1Nc1nc(Nc2ccc3c(c2)N(C(C)=O)CCCC3(C)C)ncc1Cl` [Example 1602, 2-[2-(1-Acetyl-5,5-dimethyl-2,3,4,5-tetrahydro-1H-benzo[b]azepin-8-ylamino)-5-chloro-pyrimidin-4-ylamino]-3-fluoro-N-prop-2-ynyl-benzamide], the IC50 was 100 to 1000 nM in experiment [1] (setting [9]) and under 100 nM in experiment [2] (setting [10]).

As for `CN1C(=O)CCC(C)(C)c2cc(Nc3ncc(Cl)c(Nc4ccccc4-n4cccn4)n3)ccc21` [Example 1323, 7-[5-Chloro-4-(2-pyrazol-1-yl-phenylamino)-pyrimidin-2-ylamino]-1,5,5-trimethyl-1,3,4,5-tetrahydro-benzo[b]azepin-2-one], the values for the IC50 in experiment [1] (setting [3]) and in experiment [2] (setting [4]) were under 100 nM and 100 to 1000 nM, respectively.

Turning to `CNC(=O)c1ccccc1Nc1nc(Nc2ccc3c(c2)CNCCS3)ncc1Cl` [Example 516, 2-[5-Chloro-2-(6,7,8,9-tetrahydro-5-thia-aza-benzocyclohepten-2-ylamino)-pyrimidin-4-ylamino]-N-methyl-benzamide], the IC50 in experiment [1] (setting [7]) and in experiment [2] (setting [8]) was under 100 nM throughout.
